One series addresses JAK2 JH2 (Homo sapiens, UniProt O60674, F794H/W659A/W777A). Briefly: Competitive fluorescence polarization. On the technique in general: Polarisation of emitted light reports the rotation of a fluorescent probe.
For series [1] the following is noted: cited from earlier work.

We go through six compounds from publication PMC7949251 (Journal of medicinal chemistry, 2020).

Chain of JAK2 JH2 (O60674 536-812 W659A/W777A/F794H): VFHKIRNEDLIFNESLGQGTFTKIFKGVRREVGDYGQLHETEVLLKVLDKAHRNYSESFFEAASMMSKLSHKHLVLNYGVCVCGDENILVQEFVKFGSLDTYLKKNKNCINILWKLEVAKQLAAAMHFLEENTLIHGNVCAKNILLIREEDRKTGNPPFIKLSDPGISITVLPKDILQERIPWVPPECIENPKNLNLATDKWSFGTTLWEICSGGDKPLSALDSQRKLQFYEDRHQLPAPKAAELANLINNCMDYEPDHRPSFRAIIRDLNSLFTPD

Consider `N#Cc1ccc(Nc2nc(N)n(C(=O)Nc3ccc(OCC(=O)O)cc3)n2)cc1` [Compound 9, 2-(4-(5-amino-3-((4-cyanophenyl)amino)-1H-1,2,4-triazole-1-carboxamido)phenoxy)acetic acid], for which the “boost in binding strength with JAK2 JH2 compared to 4” value at JAK2 JH2 (FP Kd relative to compound 4) is “ca. 8 fold”.

As to `c1ccsc1` [thiophene], the “octanol/water log P” value in series [1] was 1.81.

On to `Nc1nc(Nc2ccc(S(N)(=O)=O)cc2)nn1C(=O)Nc1ccccc1` [Compound 4, 5-amino-N-phenyl-3-((4-sulfamoylphenyl)amino)-1H-1,2,4-triazole-1-carboxamide], for which the “improvement in JAK2 JH2 binding over 2” value on JAK2 JH2 (FP Kd relative to compound 2) is on record as 3 fold. As for `c1cocn1` [oxazole], the “octanol/water log P” value in series [1] was 0.12. Regarding `c1cscn1` [thiazole], in series [1], the “octanol/water log P” value is 0.44. With furan, the “octanol/water log P” value in series [1] is listed as 1.34.
